In the supplement of paper PMC11451515:

Assays:
Conditions in all cases: 48 h
[1] = system: NOMO1; test: cell viability relative to DMSO control; higher = less cytotoxic
In short: (§1)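 NOMO1, SEM and P12-Ichikawa leukemia cells spent at least four passages adapting to each medium before use. They were seeded at 500 cells/well (NOMO1, SEM) or 1000 cells/well (P12-Ichikawa) in 5 μl in 1536-well plates and pin-dosed with library compounds in DMSO at 11 threefold steps from 47 μM down to 0.79 nM. After 48 h at 37°C, CellTiter-Glo One luminescence was read. Viability is reported as a percentage of the DMSO wells on each plate, with cell-free wells as background.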

[2] = system: P12-Ichikawa; test: as above
In short: as §1

[3] = system: SEM cells; test: as above
In short: as §1

[4] = system: NOMO1; test: AUC of viability dose-response curve (% viability x log10 dose units); higher = less sensitive
In short: (§2)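 Over 48 h at 37°C, leukemia cells in 1536-well plates (500 or 1000 cells/well), adapted to each medium, received library compounds in DMSO at 11 threefold doses from 47 μM to 0.79 nM. CellTiter-Glo One luminescence, normalised per plate to DMSO and cell-free wells, was fitted by a four-parameter log-logistic function of log10 dose. The area under the curve was then integrated by trapezoidal rule, after scaling curves above full viability and removing those that failed quality control.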

[5] = system: P12-Ichikawa; test: as above
In short: as §2

[6] = system: SEM cells; test: as above
In short: as §2

NC(CO)C(=O)NNCc1ccc(O)c(O)c1O (stereo not drawn)
cell viability [%]
Conditions | [1] | [2] | [3]
HPLM + 10% dialyzed FBS, 0.000781 µM | 96.1 | 103 | 93.3
HPLM + 10% dialyzed FBS, 0.00234 µM | 104 | 93.7 | 116
HPLM + 10% dialyzed FBS, 0.00702 µM | 106 | 99.7 | 105
HPLM + 10% dialyzed FBS, 0.0211 µM | 93.5 | 103 | 89.9
HPLM + 10% dialyzed FBS, 0.0632 µM | 107 | 103 | 106
HPLM + 10% dialyzed FBS, 0.19 µM | 107 | 100 | 99.8
HPLM + 10% dialyzed FBS, 0.569 µM | 91.6 | 87.9 | 102
HPLM + 10% dialyzed FBS, 1.71 µM | 88.1 | 90.7 | 103
HPLM + 10% dialyzed FBS, 5.12 µM | 90.6 | 90.9 | 104
HPLM + 10% dialyzed FBS, 15.4 µM | 89 | 92.2 | 89.4
HPLM + 10% dialyzed FBS, 46.1 µM | 77.2 | 54 | 84.2
RPMI 5 mM glucose + 10% FBS, 0.000781 µM | 85.6 | 96.5 | 99.8
RPMI 5 mM glucose + 10% FBS, 0.00234 µM | 101 | 100 | 104
RPMI 5 mM glucose + 10% FBS, 0.00702 µM | 96.3 | 99.6 | 101
RPMI 5 mM glucose + 10% FBS, 0.0211 µM | 95.9 | 91 | 84.7
RPMI 5 mM glucose + 10% FBS, 0.0632 µM | 94.4 | 105 | 101
RPMI 5 mM glucose + 10% FBS, 0.19 µM | 94.1 | 99.5 | 105
RPMI 5 mM glucose + 10% FBS, 0.569 µM | 89.4 | 91.7 | 98.3
RPMI 5 mM glucose + 10% FBS, 1.71 µM | 85 | 92.8 | 96.1
RPMI 5 mM glucose + 10% FBS, 5.12 µM | 84.3 | 93.6 | 72.9
RPMI 5 mM glucose + 10% FBS, 15.4 µM | 83.7 | 81 | 99
RPMI 5 mM glucose + 10% FBS, 46.1 µM | 82.9 | 19.1 | 12.6
RPMI 5 mM glucose + 10% dialyzed FBS, 0.000781 µM | 89.4 | 99.9 | 103
RPMI 5 mM glucose + 10% dialyzed FBS, 0.00234 µM | 102 | 89 | 105
RPMI 5 mM glucose + 10% dialyzed FBS, 0.00702 µM | 107 | 94 | 104
RPMI 5 mM glucose + 10% dialyzed FBS, 0.0211 µM | 90.8 | 98.3 | 89.2
RPMI 5 mM glucose + 10% dialyzed FBS, 0.0632 µM | 98.8 | 96.5 | 95
RPMI 5 mM glucose + 10% dialyzed FBS, 0.19 µM | 102 | 93.7 | 88.5
RPMI 5 mM glucose + 10% dialyzed FBS, 0.569 µM | 91.9 | 88.6 | 100
RPMI 5 mM glucose + 10% dialyzed FBS, 1.71 µM | 90 | 94.2 | 91.4
RPMI 5 mM glucose + 10% dialyzed FBS, 5.12 µM | 96 | 85.3 | 90.5
RPMI 5 mM glucose + 10% dialyzed FBS, 15.4 µM | 92.7 | 91.4 | 87.8
RPMI 5 mM glucose + 10% dialyzed FBS, 46.1 µM | 82.6 | 26.5 | 18

AUC of viability dose-response curve
Conditions | [4] | [5] | [6]
HPLM + 10% dialyzed FBS | 448 | 450 | 450
RPMI 5 mM glucose + 10% FBS | 431 | 435 | 439
RPMI 5 mM glucose + 10% dialyzed FBS | 454 | 428 | 437

N=C(N)NC(=N)N1CCOCC1
cell viability [%]
Conditions | [1] | [2] | [3]
HPLM + 10% dialyzed FBS, 0.000781 µM | 102 | 104 | 97.7
HPLM + 10% dialyzed FBS, 0.00234 µM | 84.7 | 108 | 97.2
HPLM + 10% dialyzed FBS, 0.00702 µM | 106 | 107 | 112
HPLM + 10% dialyzed FBS, 0.0211 µM | 103 | 113 | 98
HPLM + 10% dialyzed FBS, 0.0632 µM | 106 | 106 | 99.1
HPLM + 10% dialyzed FBS, 0.19 µM | 111 | 116 | 105
HPLM + 10% dialyzed FBS, 0.569 µM | 111 | 109 | 109
HPLM + 10% dialyzed FBS, 1.71 µM | 103 | 104 | 103
HPLM + 10% dialyzed FBS, 5.12 µM | 103 | 106 | 86.4
HPLM + 10% dialyzed FBS, 15.4 µM | 89.6 | 103 | 98.9
HPLM + 10% dialyzed FBS, 46.1 µM | 87.1 | 108 | 112
RPMI 5 mM glucose + 10% FBS, 0.000781 µM | 95.2 | 103 | 94
RPMI 5 mM glucose + 10% FBS, 0.00234 µM | 93.1 | 98.3 | 94.5
RPMI 5 mM glucose + 10% FBS, 0.00702 µM | 115 | 90.7 | 99.7
RPMI 5 mM glucose + 10% FBS, 0.0211 µM | 101 | 93.2 | 96.2
RPMI 5 mM glucose + 10% FBS, 0.0632 µM | 111 | 97.8 | 105
RPMI 5 mM glucose + 10% FBS, 0.19 µM | 106 | 98.1 | 104
RPMI 5 mM glucose + 10% FBS, 0.569 µM | 102 | 99.7 | 113
RPMI 5 mM glucose + 10% FBS, 1.71 µM | 97.1 | 93.5 | 93.4
RPMI 5 mM glucose + 10% FBS, 5.12 µM | 98.7 | 87.8 | 71.2
RPMI 5 mM glucose + 10% FBS, 15.4 µM | 84.4 | 92.5 | 100
RPMI 5 mM glucose + 10% FBS, 46.1 µM | 87.4 | 92.4 | 106
RPMI 5 mM glucose + 10% dialyzed FBS, 0.000781 µM | 96.4 | 101 | 104
RPMI 5 mM glucose + 10% dialyzed FBS, 0.00234 µM | 93.3 | 105 | 114
RPMI 5 mM glucose + 10% dialyzed FBS, 0.00702 µM | 89.8 | 92.4 | 107
RPMI 5 mM glucose + 10% dialyzed FBS, 0.0211 µM | 88.8 | 102 | 104
RPMI 5 mM glucose + 10% dialyzed FBS, 0.0632 µM | 106 | 109 | 106
RPMI 5 mM glucose + 10% dialyzed FBS, 0.19 µM | 104 | 93.8 | 100
RPMI 5 mM glucose + 10% dialyzed FBS, 0.569 µM | 101 | 99.8 | 111
RPMI 5 mM glucose + 10% dialyzed FBS, 1.71 µM | 87.2 | 96.8 | 93.6
RPMI 5 mM glucose + 10% dialyzed FBS, 5.12 µM | 87.9 | 91.2 | 114
RPMI 5 mM glucose + 10% dialyzed FBS, 15.4 µM | 86 | 86.8 | 92.3
RPMI 5 mM glucose + 10% dialyzed FBS, 46.1 µM | 89.7 | 98.9 | 110

AUC of viability dose-response curve
Conditions | [4] | [5] | [6]
HPLM + 10% dialyzed FBS | 465 | 473 | 472
RPMI 5 mM glucose + 10% FBS | 461 | 454 | 467
RPMI 5 mM glucose + 10% dialyzed FBS | 447 | 463 | 460

N#Cc1ccc(NC(=O)Nc2ccccc2Br)c2nn[nH]c12
cell viability [%]
Conditions | [1] | [2] | [3]
HPLM + 10% dialyzed FBS, 0.000781 µM | – | 101 | 81.8
HPLM + 10% dialyzed FBS, 0.00234 µM | – | 109 | 93.9
HPLM + 10% dialyzed FBS, 0.00702 µM | – | 109 | 110
HPLM + 10% dialyzed FBS, 0.0211 µM | – | 115 | 103
HPLM + 10% dialyzed FBS, 0.0632 µM | – | 119 | 107
HPLM + 10% dialyzed FBS, 0.19 µM | – | 123 | 108
HPLM + 10% dialyzed FBS, 0.569 µM | – | 122 | 123
HPLM + 10% dialyzed FBS, 1.71 µM | – | 116 | 126
HPLM + 10% dialyzed FBS, 5.12 µM | – | 125 | 125
HPLM + 10% dialyzed FBS, 15.4 µM | – | 126 | 109
HPLM + 10% dialyzed FBS, 46.1 µM | – | 79.1 | 112
RPMI 5 mM glucose + 10% FBS, 0.000781 µM | 101 | 101 | 80.7
RPMI 5 mM glucose + 10% FBS, 0.00234 µM | 122 | 109 | 111
RPMI 5 mM glucose + 10% FBS, 0.00702 µM | 102 | 112 | 97.9
RPMI 5 mM glucose + 10% FBS, 0.0211 µM | 107 | 120 | 91.4
RPMI 5 mM glucose + 10% FBS, 0.0632 µM | 117 | 118 | 113
RPMI 5 mM glucose + 10% FBS, 0.19 µM | 119 | 134 | 103
RPMI 5 mM glucose + 10% FBS, 0.569 µM | 122 | 122 | 101
RPMI 5 mM glucose + 10% FBS, 1.71 µM | 114 | 117 | 101
RPMI 5 mM glucose + 10% FBS, 5.12 µM | 107 | 128 | 107
RPMI 5 mM glucose + 10% FBS, 15.4 µM | 120 | 127 | 104
RPMI 5 mM glucose + 10% FBS, 46.1 µM | 119 | 122 | 81.7
RPMI 5 mM glucose + 10% dialyzed FBS, 0.000781 µM | 94.1 | 103 | 93.1
RPMI 5 mM glucose + 10% dialyzed FBS, 0.00234 µM | 106 | 110 | 103
RPMI 5 mM glucose + 10% dialyzed FBS, 0.00702 µM | 106 | 111 | 108
RPMI 5 mM glucose + 10% dialyzed FBS, 0.0211 µM | 105 | 108 | 99
RPMI 5 mM glucose + 10% dialyzed FBS, 0.0632 µM | 101 | 117 | 116
RPMI 5 mM glucose + 10% dialyzed FBS, 0.19 µM | 113 | 112 | 129
RPMI 5 mM glucose + 10% dialyzed FBS, 0.569 µM | 123 | 123 | 125
RPMI 5 mM glucose + 10% dialyzed FBS, 1.71 µM | 109 | 109 | 124
RPMI 5 mM glucose + 10% dialyzed FBS, 5.12 µM | 105 | 121 | 121
RPMI 5 mM glucose + 10% dialyzed FBS, 15.4 µM | 101 | 125 | 114
RPMI 5 mM glucose + 10% dialyzed FBS, 46.1 µM | 115 | 95.7 | 107

AUC of viability dose-response curve
Conditions | [4] | [5] | [6]
HPLM + 10% dialyzed FBS | 477 | 475 | 448
RPMI 5 mM glucose + 10% FBS | 463 | 457 | 473
RPMI 5 mM glucose + 10% dialyzed FBS | 456 | 465 | 449
